pIC50: −log10 of the molar value. Like-named read-outs stand apart in the source and are kept apart here.
Tests used:
SK-OV-3 = experiment: expanded in vitro screen, SK-OV-3; format: cell-based; conditions: Homo sapiens; SK-OV-3, Ovary, solid
Protocol: (§1) An expanded in vitro screen was performed of spisulosine 285 against a series of different cell lines.

K562 = experiment: expanded in vitro screen, K562; format: cell-based; conditions: Homo sapiens; K562, Leukemia
Protocol: as §1

CV-1 = experiment: expanded in vitro screen, CV-1 normal cell line; format: cell-based, monkey; conditions: Primates, CV-1, Kidney fibroblasts
Protocol: as §1

MEL-28 = experiment: in vitro tumor cell line activity, MEL-28; format: cell-based
Vero cells [1] = experiment: effect of LPA on the action of spisulosine 285 in Vero cells (Example D); format: cell-based; conditions: spisulosine alone, 24 hours
From the text: LPA is known to increase the level of stress fibers in cells by activation of the Rho protein. The effect of LPA on cells treated with spisulosine 285, and untreated cells was examined. […]

FADU = experiment: expanded in vitro screen, FADU; format: cell-based; conditions: Homo sapiens, Pharnynx, solid
Protocol: as §1

HT-29 = experiment: in vitro tumor cell line activity, HT-29; format: cell-based
[2] = tested on: L1210 murine lymphocytic leukemia cells; experiment: L1210 cytotoxicity assay (inhibition of growth); format: cell-based
Protocol: The morphological effect was usually measured 30–35 h after the start of the assay and again about 24 h later, while the cytotoxicity was determined when the number of cells in the controls reached approximately 8000, usually in 3 days after the assay was begun. It should be noted that the pointed cells were live cells and that they were counted as such for the cytotoxicity reading. […] All morphologically-changed cells were counted in the pointed cell percentage.
Cytotoxicity assays against L1210 murine lymphocytic leukemia cells were performed by dissolving the samples in methanol and/or hexane were applied to the dry assay wells and the solvent was allowed to evaporate. Cells (1000) were added in minimum essential medium (MEM, 1 ml) and incubated 37° C. Inhibition of growth was recorded as the estimated percentage of living cells in sample wells versus that in control wells.

P3HR1 = experiment: expanded in vitro screen, P3HR1; format: cell-based; conditions: Homo sapiens, P3HR-1; P3HR1, Burkitts
Protocol: as §1

HL60 = experiment: expanded in vitro screen, HL60; format: cell-based; conditions: Homo sapiens, HL-60; HL60, Leukemia
Protocol: as §1

[3] = tested on: human prostate cancer (PC-3); experiment: xenograft model of human prostate cancer; format: in vivo; conditions: for % T/C / Comments: intraperitoneal
Protocol: Spisulosine 285 was tested in in vivo studies against xenograft models of human prostate cancer (PC-3) and human renal cancer (MRI-H-121). These models use subcutaneously implanted solid human tumors that grow and increase in volume over time. The mean volume of tumor growth in control animals provides the basis for comparison. […] A level of activity that is less than 40% T/C is considered statistically significant. The doses of spisulosine used were given at the maximum tolerated, non lethal dose (MTD), ½ MTD and ¼ MTD. Delivery of the drug was by the intraperitoneal route.

Hs 746T = experiment: expanded in vitro screen, Hs 746T; format: cell-based; conditions: Homo sapiens, Hs746T, Stomach, solid
Protocol: as §1

Vero cells [4] = experiment: microfilament and microtubule staining in Vero cells (Example B); format: cell-based; conditions: 0.5 mM, 4 hours
Protocol: In order to identify the organization of the microfilament and microtubule organization in cells treated with spisulosine 285, cells were stained with phalloidin to detect actin polymers, and an antitubulin antibody to detect tubulin.
Vero cells were incubated in the presence (panel b, d) or absence (a, c) of 0.5 mM spisulosine 285 for 4 hours. Cells grown in coverslips were fixed with methanol at −20° C. (for tubulin antibody) or with 4% paraformaldehyde in phosphate buffered saline PBS (w/v) for phalloidin incubation. In the second case the cells were washed with 0.2% Triton X100 in PBS. The coverslips were washed with PBS and incubated for 1 hour at room temperature with the tubulin antibody (diluted 1/1000 in PBS) or with phalloidin (1 mg/ml). After washing with PBS the coverslips incubated with the tubulin antibody were overlaid with fluorescein or Texas red-labelled goat antimouse antibodies (diluted 1:50 in PBS). The coverslips were mounted with Mowiol and stored in the dark at 4° C. until observation.

Rho protein = Rho protein electrophoresis / Western blot and subcellular fractionation (Example C); format: cell-based; conditions: 0.5 mM, 20 hour
Protocol: The small GTP binding protein Rho is involved in the formation of actin-myosin “stress fibers” (Hall, A., Science, 279, 1998, p 509–514). Therefore, the electrophoretic mobility and cellular distribution of Rho was analyzed in cells treated with spisulosine 285.
FIG. 5 is an electrophoretogram of Example C. In panel A, equivalent amounts of protein from a cell extract from untreated (a) or from 0.5 mM spisulosine 285 treated (20 hour) cells (b) were fractionated by gel electrophoresis and blotted onto nitrocellulose paper to analyze the amount of the Rho protein.
In panel B the experiment was carried out as above, except that the homogenate was fractionated into a particulate (membrane, “M”) fraction and soluble (“S”) fraction.
Subcellular fractionation was carried out by placing cells in a hypotonic buffer (0.25 M sucrose, 20 mM HEPES pH 7.4, 2 mM EDTA, 1 mM PMSF, […] aprotinin, leupeptine and pestatine), and lysing them with a Dounce. The homogenate was first centrifuged at 750 g for 5 minutes to remove nuclei and unbroken cells, and the supernatant was further centrifuged at 30,000 g for 1 hour (4° C.) to isolate a pelleted particulate fraction (putative membrane fraction) and a supernatant. The different fractions were characterised by electrophoresis and Western Blotting using an antibody against the Rho protein.

Vero cells [5] = experiment: Vero cell morphology (Example A); format: cell-based; conditions: 0.5 mM, 4 hours
Protocol: Vero cells were grown in Dulbecco's modified Eagle medium supplemented with 10% foetal bovine serum. Spisulosine or LPA were added to these cultures to a concentration of […] and 50–10 mM respectively, from 4 to 24 hours. Cells were counted with the […] haemocytometer procedure using a solution of 0.4% Trypan blue in Hanks buffered Saline (Celis and Celis, “General Procedures for Tissue Culture in Cell Biology, a Laboratory Handbook” Academic Press Inc, Vol 1, pp. 5–17.)
Vero cells were incubated with spisulosine 285 (0.5 mM) for 4 hours. […] Panel c represents a higher magnification of the culture to which spisulosine was added.

RAMOS = experiment: expanded in vitro screen, RAMOS; format: cell-based; conditions: Homo sapiens, Burkitts
Protocol: as §1

pIC50 (SK-OV-3): 10.85 | pIC50 (K562): 10.80 | pIC50 (FADU): 11.30 | pIC50 (P3HR1): 10.17 | pIC50 (HL60): 11.07 | pIC50 (Hs 746T): 11.10 | pIC50 (RAMOS): 10.32
SMILES: CCCCCCCCCCCCCCC[C@@H](O)[C@H](C)N [Spisulosine 285, (2S,3R)-2-Amino-3-octadecanol]
pIC50 (CV-1): 10.56 | active against tumor cell line in vitro (concentration) (MEL-28): 0.05 mg/mL | cell morphology (Vero cells [1]): appearance of rounded cells | active against tumor cell line in vitro (concentration) (HT-29): 0.05 mg/mL | cytotoxicity at 0.01 µg/mL ([2]; Mus musculus, L1210, 0.01 μg/ml): 45% | cytotoxicity at […] ([2]; Mus musculus, L1210, 0.025 μg/ml): 90% | cytotoxicity at 0.05 µg/mL ([2]; Mus musculus, L1210, 0.05 μg/ml): 96% | cytotoxicity at 0.1 µg/mL ([2]; Mus musculus, L1210, 0.1 μg/ml): 99% | inhibition at 0.1 µg/mL ([2]; Mus musculus, L1210, 0.1 μg/ml, read-out: % Inhibitiion): 63% | cytotoxicity at […] ([2]; Mus musculus, L1210, 0.25 μg/ml): 99% | inhibition at […] ([2]; Mus musculus, L1210, 0.25 μg/ml, read-out: % Inhibitiion): 96% | cytotoxicity at 0.5 µg/mL ([2]; Mus musculus, L1210, 0.5 μg/ml): 100% | inhibition at 0.5 µg/mL ([2]; Mus musculus, L1210, 0.5 μg/ml, read-out: % Inhibitiion): 99% | inhibition at 1 µg/mL ([2]; Mus musculus, L1210, 1 μg/ml, read-out: % Inhibitiion): 100% | inhibition at […] ([2]; Mus musculus, L1210, 2.5 μg/ml, read-out: % Inhibitiion): 100% | inhibition at 5 µg/mL ([2]; Mus musculus, L1210, 5 μg/ml, read-out: % Inhibitiion): 100% | L1210 cytotoxicity (in words) ([2]; listed as 1): showed both cytotoxicity and morphological alteration | effect on tumour size (in words) ([3]; at higher doses): significantly reducing the tumour size | % T/C ([3]; total dose 2.499 mg/kg, day 15): 223% | % T/C ([3]; total dose 5.010 mg/kg, day 11): −1% | Comments ([3]; total dose 5.010 mg/kg, day 11): stasis (complete remission) | % T/C ([3]; total dose 9.990 mg/kg, day 11): −21% | Comments ([3]; total dose 9.990 mg/kg, day 11): stasis (complete remission) | actin (phalloidin stain) (Vero cells [4]): dramatic decrease in actin | microtubule network (tubulin antibody) (Vero cells [4]): remains in a polymerised form | amount or mobility of Rho (Rho protein): No significant change | proportion of Rho associated with the particulate fraction (Rho protein): decrease | cell shape (Vero cells [5]): altered from polygonal (untreated cells, panel a) to a fusiform shape

— patent US7109244B2, “Compositions and methods comprising long-chain, straight-chain 2-amino-3-hydroxyalkanes” (priority 1997, dated 2006)
